Laboratory results published in PubChem BioAssay (NCI).
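Test compounds were applied to cells in 96-well plates for 48 hours at 5 doses. GI50 marks 50% less growth. TGI marks complete inhibition of growth.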

Experiments:
Assay in all cases: growth of human tumour cells (NCI), 48 h
ACHN renal = system: ACHN renal
OVCAR-5 ovarian = system: OVCAR-5 ovarian
SF-268 CNS = system: SF-268 CNS
SR leukemia = system: SR leukemia
MALME-3M melanoma = system: MALME-3M melanoma
IGROV1 ovarian = system: IGROV1 ovarian
NCI/ADR-RES ovarian = system: NCI/ADR-RES ovarian
M14 melanoma = system: M14 melanoma
UO-31 renal = system: UO-31 renal
HCT-15 colon = system: HCT-15 colon

SMILES	GI50 (ACHN renal) [µM]	TGI (ACHN renal) [µM]	GI50 (OVCAR-5 ovarian) [µM]	TGI (OVCAR-5 ovarian) [µM]	GI50 (SF-268 CNS) [µM]	TGI (SF-268 CNS) [µM]	GI50 (SR leukemia) [µM]	TGI (SR leukemia) [µM]	GI50 (MALME-3M melanoma) [µM]	TGI (MALME-3M melanoma) [µM]	GI50 (IGROV1 ovarian) [µM]	TGI (IGROV1 ovarian) [µM]	GI50 (NCI/ADR-RES ovarian) [µM]	TGI (NCI/ADR-RES ovarian) [µM]	GI50 (M14 melanoma) [µM]	TGI (M14 melanoma) [µM]	GI50 (UO-31 renal) [µM]	TGI (UO-31 renal) [µM]	GI50 (HCT-15 colon) [µM]	TGI (HCT-15 colon) [µM]
S=c1nc2[nH]ncc2c(N/N=C/c2ccccc2)[nH]1	63.3	> 100	> 100	> 100	> 100	> 100	> 100	> 100	> 100	> 100	45.4	> 100	> 100	> 100	> 100	> 100	> 100	> 100	81.3	> 100
O=C(O)c1ccc2c(c1Nc1ccccc1)C(=O)c1ccccc1C2=O	39.7	> 100	> 100	> 100	34.6	> 100	41	> 100	54.6	> 100	16.2	> 100	52.3	> 100	38.1	> 100	11.8	> 100	72.8	> 100
CCOC(=O)c1ccc(N(CCOS(C)(=O)=O)CCOS(C)(=O)=O)cc1C	9.94	42.7	38.1	94	22	82.7	2.83	> 100	29	> 100	91.4	> 100	23.7	66.9	40.5	> 100	23.1	45.9	28.2	> 100
Cc1cccc2c(N=Nc3ccc(S(N)(=O)=O)cc3)c(O)[nH]c12	> 25	> 25	> 25	> 25	> 25	> 25	> 25	> 25	> 25	> 25	> 25	> 25	> 25	> 25	> 25	> 25	> 25	> 25	> 25	> 25
COc1cc(/C=C2\CN(C)C/C(=C\c3cc(OC)c(OC)c(OC)c3)C2=O)cc(OC)c1OC	0.2	0.387	0.357	1.17	0.346	1.6	0.24	1.41	0.209	0.435	0.413	1.73	0.349	> 100	0.306	1.57	0.28	0.818	0.214	0.555
O=C1C(=O)c2ccccc2-c2ccccc21	1.44	2.84	1.75	3.52	1.61	3.15	0.555	7.82	1.79	3.31	2.07	3.75	0.543	2.9	1.76	3.29	1.44	2.82	1.05	2.92
O=C(Nc1ccccc1)Nc1cccc(-n2cc(-c3ccncc3)c(-c3ccc(O)c(Cl)c3)n2)c1	2.95	34.7	5.39	31.5	5.73	68.8	2.35	6.29	2.25	6.02	6.06	41.4	6.49	82.6	3.1	9.47	3.43	31.8	2.84	> 100
COc1ccc(-c2nn(-c3cccc(NC(=O)Nc4ccc(Cl)c(C(F)(F)F)c4)c3)cc2-c2ccncc2)cc1Cl	2.32	13.8	4.36	30.8	4.21	35.9	1.82	5.65	2.27	7.58	3.65	29.5	2.62	9.84	1.9	4.44	2.12	13.3	2.37	19.2
CN1CCC[C@@H]1CCO[C@](C)(c1ccccc1)c1ccc(Cl)cc1	6.31	19	5.34	18.6	9	21.5	2.32	9.59	1.79	4.85	4.16	18.1	7.55	21.7	1.82	3.45	2.83	16.3	4.4	16
CNNCc1ccc(C(=O)NC(C)C)cc1		> 500	> 500	> 500		> 500		> 375		> 500	> 500	> 500		> 500		> 500		> 500	> 500	> 500
N#CC(=S)Nc1ccc(Cl)c(Cl)c1		82.5		55.9		> 94.5		67.4		> 54.7		53.8		65.4		> 60.6	7.63	51.6		49.6
O=C(O)CC(Nc1ccccc1)C(=O)O (centres undefined)		> 100		> 100		> 100		> 100		> 100		> 100		> 100		> 100		> 100		> 100
